Earlier results as cited in patent US8053002B2, “Medicinal herbal composition for treating infection” (priority 2005, dated 2011).

Tests used:
[1] = tested on: herpes simplex virus (HSV-2)
[2] = molecular target: HIV-1 reverse transcriptase (Human immunodeficiency virus type 1 group M subtype B, UniProt P03366)

Molecule | anti-herpes simplex virus (HSV-2) activity in vitro [1] | effect on HIV-1 reverse transcriptase activity [2] | further results
O=C(O[C@@H]1O[C@@H]2COC(=O)c3cc(O)c(O)c(O)c3-c3c(cc(O)c(O)c3O)C(=O)O[C@H]2[C@H](OC(=O)c2cc(O)c(O)c(O)c2)[C@H]1OC(=O)c1cc(O)c(O)c(O)c1)c1cc(O)c(O)c(O)c1 [Eugeniin] | exhibited anti-herpes simplex virus (HSV-2) activity | – | –
O=c1cc(-c2ccc(O)cc2)oc2cc(O)cc(O)c12 [5,7,4-truhydroxyflavone] | – | – | anti-influenza virus activity (influenza virus): anti-influenza virus activity
COc1cc2cc3c(c(-c4ccc5c(c4)OCO5)c2cc1OC)COC3=O [retrojusticiden B] | – | inhibitory effect | –
Prunellin | – | – | minimum inhibition concentration against HIV-1 in vitro (HIV-1): 2.2 µg/mL
COCc1cc2cc(OC)c(OC)cc2c(-c2ccc3c(c2)OCO3)c1C=O [phyllamycin B] | – | inhibitory effect | –
COC(=O)c1cc(O)c(O)c(O)c1 [methyl gallate] | exhibited anti-herpes simplex virus (HSV-2) activity | – | –
